Experimental data: paper PMC8877061, “Antifungal and Antibiofilm Activity of Cyclic Temporin L Peptide Analogues against Albicans and Non-Albicans Candida Species” (Pharmaceutics, 2022)
Positions of bridges follow the written chain, without caps; N, C: chain ends. Non-standard residues stand in square brackets, D forms with d. Residues, ends and D or L forms follow the SMILES beside them. Triazole bridges read from a SMILES are 1,4-linked. Lys(N3) = [N-]=[N+]=NCCCC[C@H](N)C(=O)O; Pra = C#CC[C@H](N)C(=O)O

Assays:
[1] = test system: C. albicans preformed biofilm; test: Eradication of preformed biofilm (XTT); type: cell-based; conditions: peptide 6.25 μM, 24-h old biofilm, 24 h treatment
Method: (§1) C. albicans ATCC 90028, C. auris DSM 21092, C. glabrata DSM 11226, C. tropicalis DSM11951 and C. parapsilosis DSM 4874 grown on YPD Agar (1% w/v yeast extract, 2% w/v peptone, 2% w/v glucose, 1.5% Agar) were cultured in Tryptone soya broth supplemented with 0.1% glucose for 16–18 h at 37 °C, washed twice using sterile phosphate-buffered saline (PBS) and standardized to […] as required for the experiments. RPMI1640 medium (Thermo Fisher Scientific, Waltham, MA, USA) buffered to a pH of 7.0 with 0.165 M MOPS was used for growing the biofilms of all Candida species.
(§2) Biofilm inhibition and eradication assays were performed as previously described in [37]. […] After the incubation period, non-adherent cells were detached by washing each sample three times in sterile PBS. […] The total biomass was quantified by a crystal violet assay for the inhibition. The vital biomass was quantified by XTT for test eradication by using the tetrazolium 2,3-bis (2-methoxy-4-nitro-5 sulfophenyl)-5-[(phenylamine) carbonyl]-2H-hydroxide reduction assay (XTT) (Sigma-Aldrich, St. Luis, MO, USA) according to the manufacturer’s instructions. The absorbance was measured spectrophotometrically at 492 nm. The percentages of inhibition or eradication were calculated as follows: % biofilm reduction = Abs control − Abs sample/Abs control × 100.

[2] = test system: C. parapsilosis preformed biofilm; test: Eradication of preformed biofilm (XTT); type: cell-based; conditions: peptide 6.25 μM, 24-h old biofilm, 24 h treatment
Method: as §1, §2

[3] = test system: C. albicans ATCC 90028 biofilms; test: Eradication of preformed biofilm, bright-field microscopy; type: cell-based; conditions: peptide 12.5 μM
Method: Biofilm inhibition and eradication assays were performed as previously described in [37]. […] After the incubation period, non-adherent cells were detached by washing each sample three times in sterile PBS. Then, the samples were fixed, and the biofilms were stained with a 0.1% solution of crystal violet. To test the effect against the established biofilm, fresh growth medium containing peptides at the same concentrations was added in the preformed 24-h old biofilms and incubated for another 24 h. The total biomass was quantified by a crystal violet assay for the inhibition. The vital biomass was quantified by XTT for test eradication by using the tetrazolium 2,3-bis (2-methoxy-4-nitro-5 sulfophenyl)-5-[(phenylamine) carbonyl]-2H-hydroxide reduction assay (XTT) (Sigma-Aldrich, St. Luis, MO, USA) according to the manufacturer’s instructions. The absorbance was measured spectrophotometrically at 492 nm. The percentages of inhibition or eradication were calculated as follows: % biofilm reduction = Abs control − Abs sample/Abs control × 100.
Optical microscopy images were acquired by using a Leica AF6000LX-DM6M-Z microscope (Leica Microsystems, Mannheim, Germany) controlled by LAS-X (Leica Application Suite; rel. 3.0.13) software and equipped with a Leica Camera DFC7000T. Images were acquired by focusing on the Petri dish surface with a 50× objective in a bright field. […]

[4] = Peptide aggregation imaged by AFM on mica; type: physicochemical
From the text: XE-100 Atomic Force Microscopy (AFM) (by Park Systems, Suwon, Korea) was used for the imaging of the most promising peptide (3) with and without liposome interaction. Surface imaging was obtained in non-contact mode using SSS-NCHR 10 M (by Park Systems) Si/Al-coated cantilever with a sharp tip (typical tip radius: 2 nm, <5 nm max), a resonance frequency between 200 and 400 kHz and a nominal force constant of 42 N/m. […] The AFM images were processed and analyzed by the home software (XEI by Park Systems). The images were flattened to remove the background slope and adjusted in terms of contrast and brightness. For the sample preparation for AFM, the AFM imaging was performed on a substrate of a Muscovite mica surface (of about 1 cm^2 in area) that owned a root mean square (rms) surface roughness of less than 0.5 nm on a 1000 × 1000 nm^2 area. The 3-µL aliquots of the sample solutions were casted on mica immediately after cleavage with adhesive tape to establish their cleanliness and charge activity. In fact, after the cleavage, the K^+ ions bonding the mica layers were highly mobile, resulting in a positive overcharging of the mica surface, which enabled the deposition of molecules that held a […]. After 2 min, every sample was gently washed with deionized water to remove the sample excesses and then dried at room temperature under a ventilated fume hood.

[5] = Peptide aggregation by Thioflavin T fluorescence in LUVs; type: physicochemical; conditions: LUVs PE/PC/PI/ergosterol 0.1 mM, Tris-HCl/NaCl pH 7.4, 25 °C, titrated 5-50 μM peptide
Method: The aggregation in the liposomes mimicking fungal membranes (5:4:1:2, w/w/w/w) was evaluated using Thioflavin T (ThT) as a dye probe. The lipid film was prepared by dissolving lipids in chloroform to have a final lipid concentration of 0.1 mM. Then, the solvent was removed under a nitrogen gas stream, and the film was freeze-dried overnight. Lipid films were hydrated with 100 mM NaCl, 10 mM Tris-HCl and a […] ThT buffer at a pH of 7.4 and then treated as described above to obtain LUVs. The LUVs were titrated with a peptide concentration of 5, 10, 15, 20, 30 and 50 μM, and ThT fluorescence was recorded before and after the addition of the peptide using the Varian Cary Eclipse fluorescence spectrometer at 25 °C. The samples were excited at 450 nm (slit width: 10 nm), and the fluorescence emission was recorded at 482 nm (slit width: 5 nm). Aggregation was quantified according to the equation %A = (Ff − F0)/(Fmax − F0) × 100, where Ff indicates the value of fluorescence after the peptide addition, F0 is the initial fluorescence before the addition of the peptide and Fmax is the fluorescence maximum obtained immediately after the peptide addition.

[6] = absence of liposomes, peptide 50 μM

| SMILES | eradication of preformed biofilm, C. albicans [1] [%] | eradication of preformed biofilm, C. parapsilosis [2] [%] | eradication effect on preformed C. albicans biofilms by optical microscopy [3] | height of aggregates (clusters) on mica by AFM [4, 6] [nm] | width of aggregates (clusters) on mica by AFM [4, 6] | thickness of peptide layer on mica by AFM, presence of liposomes ([4]; after interaction with liposomes mimicking fungal membranes) [nm] | concentration of complete aggregation (ThT fluorescence) [5] [µM] |
| --- | --- | --- | --- | --- | --- | --- | --- |
| CC[C@H](C)[C@H](NC(=O)[C@H](CCCNC(=N)N)NC(=O)[C@@H]1CCC(=O)NCCCC[C@H](NC(=O)[C@H](Cc2ccccc2)NC(=O)[C@H](Cc2c[nH]c3ccccc23)NC(=O)[C@@H]2CCCN2C(=O)[C@@H](NC(=O)[C@@H](N)Cc2ccccc2)C(C)C)C(=O)N[C@@H](CCCCN)C(=O)N[C@@H](Cc2ccccc2)C(=O)N[C@H](CC(C)C)C(=O)N1)C(=O)N[C@@H](CC(C)C)C(N)=O [compound 3] (H-FVPWFKKF[dL]ERIL-NH2; lactam 6-10; N-terminus assumed) | 50 | 50 | effective in the eradication of biofilm | ≤ 20 | up to 300 nm | 4 |  |
| CC(C)C[C@H](NC(=O)[C@@H]1CCCCn2cc(nn2)C[C@H](NC(=O)[C@H](CCCCN)NC(=O)[C@H](CO)NC(=O)[C@H](Cc2ccccc2)NC(=O)[C@H](Cc2c[nH]c3ccccc23)NC(=O)[C@@H]2CCCN2C(=O)[C@@H](NC(=O)[C@@H](N)Cc2ccccc2)C(C)C)C(=O)N[C@H](CC(C)C)C(=O)NCC(=O)N[C@@H](CCCNC(=N)N)C(=O)N1)C(N)=O [compound 7] (H-FVPWFSK[Pra][dL]GR[Lys(N3)]L-NH2; triazole 8-12; N-terminus assumed) |  |  |  |  |  |  | 30 |
